Reference: patent US8497371B2, “Pipemidic acid derivative autotaxin inhibitors” (University of Memphis Research Foundation, priority 2009, dated 2013)
“Also recorded” adds a separate entry of the source. Like-named read-outs stand apart in the source and are kept apart here.

What was measured:
[1] = test system: A2058 cells; test: A2058 cell migration (scratch closure); format: cell-based; conditions: 30 μM inhibitor, 48 hours; for ATX-stimulated cell migration: ATX 100 ng/ml; for LPC+ATX-stimulated cell migration: LPC 18:1 10 μM + ATX 100 ng/ml; for LPC-stimulated cell migration: LPC 18:1 10 μM
Description: A2058 cells were seeded in 96-well plates at a density of 50,000 cells per well in complete growth medium (DMEM+10% FBS+penicillin/streptomycin+L-glutamine). Cells were allowed to equilibrate for 24 hours at 37° C. with 5% CO2. Cells were then serum-deprived for 24 hours in DMEM+0.1% BSA+penicillin/streptomycin+L-glutamine (serum-free medium). […] The width of the injury was measured at T0, 4 hours (data not shown), 24 hours (data not shown), and 48 hours (shown above) after injury/treatment using the 10× objective of the phase-contrast microscope and the Micron USB software package. Data represent mean percent closure±SD. n=3 for each experiment. […] However, these reductions were also not statistically significant.

[2] = biological target: T1, ATX (Homo sapiens, UniProt Q13822); test: ATX inhibition assay with FS-3 substrate; format: biochemical; parameters: conditioned serum-free medium (CCM) from MDA-MB-435 cells as the source of ATX; endogenous in cells; host or cells: MDA-MB-435 cells (about 10x concentrated serum-free conditioned medium); conditions: for % Response at 10 μM (FS-3): FS-3 hydrolysis normalized to vehicle control (low = strong inhibition), mean ± S.D.; for single dose response comparison by aromatic substituent and position: Table 2, same values as % Response at 10 μM; for inhibition at 10 µM: single dose 10 μM, % inhibition, read-out: inhibition of ATX-mediated hydrolysis of FS-3
Description: ATX inhibition was assayed using the substrate FS-3 (Echelon Biosciences, Inc., Salt Lake City, Utah, USA). The FS-3 assay used ˜10 times concentrated conditioned serum-free medium (CCM) from MDA-MB-435 cells as the source of ATX, while CCM comprised one-third of the total volume.
All assays were performed in 96-well plates with data read at 1 minute intervals by a Synergy2 system (BioTek, Winooski, Vt.). […] Results are shown at one hour, at which point all fluorescence and absorbance changes as a function of time were linear. All readings were normalized to vehicle control after subtraction of fluorescence in the absence of CCM. Data are shown as the mean±S.D. of at least three wells. All experiments were repeated at least twice and results are shown.

[3] = biological target: T1, ATX; conditions: for Inhibition Mechanism: FS-3 substrate
[4] = biological target: T1, ATX; test: biochemical
[5] = biological target: T1, ATX; parameters: conditioned serum-free medium (CCM) from MDA-MB-435 cells as the source of ATX; endogenous in cells; host or cells: MDA-MB-435 cells (about 10x concentrated serum-free conditioned medium); conditions: 10 μM compound, 1 μM FS-3; earlier screen; cited from earlier work
[6] = biological target: T2, human NPP6 (Homo sapiens, UniProt Q6UWR7); test: Determination of NPP6 inhibition (pNPPC substrate); format: biochemical; conditions: 10 μM inhibitor
T2 construct: transfected with human NPP6ex^51 or human NPP7ex expression plasmids; made in house; host or cells: HEK293 cells, transient transfection, pcDNA3.1(+); unconcentrated conditioned medium (CM)
T2 sequence (Q6UWR7 23-419 limits assumed): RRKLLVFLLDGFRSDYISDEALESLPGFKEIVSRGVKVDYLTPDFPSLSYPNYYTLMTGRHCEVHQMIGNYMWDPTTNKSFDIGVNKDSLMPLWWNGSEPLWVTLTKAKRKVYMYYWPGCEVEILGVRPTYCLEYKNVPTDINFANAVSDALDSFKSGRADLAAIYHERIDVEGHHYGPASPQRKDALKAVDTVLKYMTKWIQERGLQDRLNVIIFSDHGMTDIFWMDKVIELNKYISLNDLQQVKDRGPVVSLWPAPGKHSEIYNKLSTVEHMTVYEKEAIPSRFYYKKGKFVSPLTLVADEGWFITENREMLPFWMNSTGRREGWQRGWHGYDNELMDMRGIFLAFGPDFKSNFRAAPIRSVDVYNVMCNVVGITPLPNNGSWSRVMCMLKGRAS
Description: (§1) Inhibitor selectivity was assayed using p-nitrophenylphosphoryl-choline (pNPPC) (Sigma-Aldrich, St. Louis, Mo.) as substrate for NPP6 and NPP7. The final volume (60 μL) included 20 μL (CM, NPP6 or CCM, NPP7, 20 μL inhibitor (10 μM including 1% DMSO) in assay buffer, and 20 μL pNPPC (10 mM, NPP6 or 1 NPP7) in assay buffer. NPP6 assay buffer contained 500 mM NaCl, 0.05% Triton X-100, 100 mM Tris-HCl (pH 9.0), whereas NPP7 assay buffer was comprised of 50 mM Tris HCl, pH 8.5, 150 mM NaCl, and 10 mM taurocholic acid. However, unlike the published methods, EDTA was not added to the NPP7 assay buffer. All assays were performed in 96-well, half area plates (Corning Inc., Lowell, Mass.) at 37° C. with data collected at 2 minute intervals using a Synergy2 absorbance plate reader (BioTek, Winooski, Vt.). Results are shown at the one hour time point, when all absorbance changes as a function of time were linear. Readings were normalized to vehicle control after subtraction of absorbance in the absence of CM or CCM. Data are shown as the mean±S.D. of at least three wells. All experiments were repeated twice and representative results are shown.
(§2) Assays were performed with CM or CCM from HEK293 cells transiently transfected with NPP6 and 7 expression plasmids, respectively. HEK293 cells were seeded in Dulbecco's modified Eagle's medium (DMEM) containing 10% fetal bovine serum, 100 U/ml penicillin, 100 μg/ml streptomycin (Hyclone, Logan, Utah), and 2 mM L-glutamine. HEK293 cells were grown overnight at 37° C. under 5% CO2 to 80% confluence. The cells were then transfected with human NPP6ex^51 or human NPP7ex expression plasmids in the pcDNA3.1(+) mammalian vector in the presence of Polyfect Transfection Reagent (Hyclone, Logan, Utah). Six hours after transfection, the culture medium was changed to serum free DMEM containing L-glutamine and cells were incubated for 48 hours. Expressed protein was collected (NPP6 and NPP7) and concentrated ˜10×(NPP7) using 10 kDa molecular weight cutoff filters (Millipore, Beverly, Mass.) in an Amicon pressure cell (Millipore, Beverly, Mass.).

[7] = biological target: T3, human NPP7 (Homo sapiens, UniProt Q6UWV6); test: Determination of NPP7 inhibition (pNPPC substrate); format: biochemical; conditions: 10 μM inhibitor
T3 construct: transfected with human NPP6ex^51 or human NPP7ex expression plasmids; made in house; host or cells: HEK293 cells, transient transfection, pcDNA3.1(+); conditioned medium concentrated about 10x (CCM)
T3 sequence (Q6UWV6 22-433 limits assumed): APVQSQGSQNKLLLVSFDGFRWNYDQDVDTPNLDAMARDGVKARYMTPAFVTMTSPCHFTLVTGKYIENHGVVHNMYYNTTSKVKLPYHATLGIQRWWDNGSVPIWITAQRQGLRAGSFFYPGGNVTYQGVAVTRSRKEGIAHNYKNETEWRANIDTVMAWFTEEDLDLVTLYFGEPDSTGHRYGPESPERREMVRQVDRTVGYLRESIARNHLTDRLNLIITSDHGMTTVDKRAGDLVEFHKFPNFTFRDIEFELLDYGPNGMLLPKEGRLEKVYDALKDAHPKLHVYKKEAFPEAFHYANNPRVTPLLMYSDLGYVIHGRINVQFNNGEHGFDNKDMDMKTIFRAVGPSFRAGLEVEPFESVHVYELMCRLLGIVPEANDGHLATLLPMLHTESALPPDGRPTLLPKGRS
Description: as §1, §2

[8] = biological target: T1, ATX; parameters: conditioned serum-free medium (CCM) from MDA-MB-435 cells as the source of ATX; endogenous in cells; host or cells: MDA-MB-435 cells (about 10x concentrated serum-free conditioned medium); conditions: cited from earlier work
[9] = Ki (μM), FS-3 substrate, for mixed mode Ki=IC50 assumed

| % Response at 10 μM (FS-3) ([2]; 10 μM compound) | mechanism of ATX inhibition [3] | Inhibition Mechanism [3] | Ki ([4]; Ki) | single dose response comparison by aromatic substituent and position [2] | inhibition at 10 µM [2] | IC50 ([2]; FS-3 substrate) | Ki [4, 9] | Structure (SMILES) | ATX-stimulated cell migration [1] | LPC+ATX-stimulated cell migration [1] | LPC-stimulated cell migration [1] | effect on activity of NPP6 [6] | effect on activity of NPP7 [7] | potency relative to the lead compound [3] | mechanism of inhibition (reported) [8] | further results |
| --- | --- | --- | --- | --- | --- | --- | --- | --- | --- | --- | --- | --- | --- | --- | --- | --- |
| 0.0 ± 4.0% | mixed-mode | Mixed | 1.6 µM | – | – | – | – | CCn1cc(C(=O)O)c(=O)c2cnc(N3CCN(C(=S)Nc4cc(Cl)cc(Cl)c4)CC3)nc21 [Compound 1] | significantly inhibited | significantly inhibited; also recorded: statistically significant inhibition | the reduction was not statistically significant | – | – | – | – | block of ATX-mediated hydrolysis of FS-3 ([2]; 10 μM compound, FS-3 1 μM): completely blocked; IC50 ([2]; ATX-mediated FS-3 hydrolysis): 1600 ± 400 nM; inhibition of ATX-catalyzed hydrolysis of FS-3, initial single concentration screen [5]: fully inhibited |
| 9.7 ± 0.9% | mixed-mode | Mixed | – | 9.7 ± 0.9 | ≥ 50% | – | – | CCn1cc(C(=O)O)c(=O)c2cnc(N3CCN(C(=S)Nc4cccc(Cl)c4)CC3)nc21 [Compound 14, 2-(4-{[(3-chlorophenyl)amino]carbonothioyl}-1-piperazinyl)-8-ethyl-5-oxo-5,8-dihydropyrido[2,3-d]pyrimidine-6-carboxylic acid] | appeared to decrease | appeared to decrease | appeared to decrease | None of the compounds affected the activity | None of the compounds affected the activity | – | – | – |
| – | – | – | – | – | – | – | – | CCn1cc(C(=O)O)c(=O)c2cnc(N3CCN(C(=S)Nc4cc(Cl)ccc4Cl)CC3)nc21 [Compound 20, 2-(4-{[(2,5-dichlorophenyl)amino]carbonothioyl}-1-piperazinyl)-8-ethyl-5-oxo-5,8-dihydropyrido[2,3-d]pyrimidine-6-carboxylic acid] | appeared to decrease | appeared to decrease | appeared to decrease | None of the compounds affected the activity | None of the compounds affected the activity | – | – | – |
| 30.4 ± 1.3% | mixed-mode | Mixed | 1.7 to 13.5 µM | – | ≥ 50% | 9000 nM | 9 µM | CCn1cc(C(=O)O)c(=O)c2cnc(N3CCN(C(=S)Nc4cc(C)cc(C)c4)CC3)nc21 [Compound 22, 2-(4-{[(3,5-dimethylphenyl)amino]carbonothioyl}-1-piperazinyl)-8-ethyl-5-oxo-5,8-dihydropyrido[2,3-d]pyrimidine-6-carboxylic acid] | – | – | – | None of the compounds affected the activity | None of the compounds affected the activity | as potent as or significantly less potent than the lead | – | – |
| 42.4 ± 0.9% | mixed-mode | Mixed | 1.7 to 13.5 µM | 42.4 ± 0.9 | ≥ 50% | 10700 nM | 10.7 µM | CCn1cc(C(=O)O)c(=O)c2cnc(N3CCN(C(=S)Nc4ccc(Cl)cc4)CC3)nc21 [Compound 28, 2-(4-{[(4-chlorophenyl)amino]carbonothioyl}-1-piperazinyl)-8-ethyl-5-oxo-5,8-dihydropyrido[2,3-d]pyrimidine-6-carboxylic acid] | – | – | – | None of the compounds affected the activity | None of the compounds affected the activity | as potent as or significantly less potent than the lead | – | – |
| 36.2 ± 0.9% | uncompetitive | Uncompetitive | – | 36.2 ± 0.9 | ≥ 50% | 1500 nM | 1.4 µM | CCn1cc(C(=O)O)c(=O)c2cnc(N3CCN(C(=S)Nc4ccc(C(F)(F)F)cc4)CC3)nc21 [Compound 31, 2-(4-{[(4-trifluoromethylphenyl)amino]carbonothioyl}-1-piperazinyl)-8-ethyl-5-oxo-5,8-dihydropyrido[2,3-d]pyrimidine-6-carboxylic acid] | – | – | – | None of the compounds affected the activity | None of the compounds affected the activity | at least as potent as the lead compound; also recorded: approximately equivalent to the lead | – | IC50 ([2]; Substrate FS-3 (1 μM)): 1500 nM |
| – | – | – | – | – | – | – | – | CCCCCCCCCCCCC/C=C/[C@@H](O)[C@@H](N)COP(=O)(O)O [Compound S1P, sphingosine 1-phosphate] | – | – | – | – | – | – | mixed-mode | – |
| – | – | – | – | – | – | – | – | CCCCCCCCc1ccc(CCC(N)(CO)COP(=O)(O)O)cc1 (stereo not shown) [FTY720-phosphate] | – | – | – | – | – | – | competitive | Ki ([8]; read-out: Ki (reported)): 200 nM |
| – | – | – | – | – | – | – | – | N[C@@H](Cc1c[nH]cn1)C(=O)O [L-histidine] | – | – | – | – | – | – | non-competitive | – |
